Tests used:
[1] = acetic acid Writhing Test (analgesia), mouse; format: in vivo; conditions: p.a. (so in the source)
From the text: Acetic acid Writhing Test Koster et al., Fed. Proc., Volume 18, 412 (1959).

[2] = Randall-Selitto Test (analgesia), rat; format: in vivo; conditions: for ED50: po
From the text: Randall-Selitto Test G. Engelhardt, Arzneim. Forsch. 34, 992 et seq. (1984); Maruyama et al., Arzneim. Forsch. 28, 11 (1978).

Toxicity, LD50 rat = conditions: in vivo, po
From the text: (§1) Miller, Tainter, Proc. Soc. Exper. Biol. Med. 57, 261 (1944).

Toxicity, LD50 mouse = conditions: in vivo, po
From the text: as §1

[3] = general absence of side-effects (gastrointestinal disorders, gastric ulcers); format: in vivo; conditions: compared to known substances, e.g. non-steroidal anti-inflammatory agents with analgesic components

Row | SMILES | ED50 [1] | ED50 [2] | LD50 (Toxicity, LD50 rat) | LD50 (Toxicity, LD50 mouse) | side-effects such as gastrointestinal disorders and gastric ulcers [3] | acetic acid Writhing Test Mouse, % effect at stated dose ([1]; at 0.5 mg/kg (printed 0.5/34%)) | Randall-Selitto Test Rat, % effect at stated dose ([2]; p.o., at 0.5 mg/kg (printed 0.5/57%))
1 | Nc1ccc(Cc2ccc(F)cc2)c(N)n1 [D 17033, 2,6-diamino-3-(4-fluoro)benzylpyridine] | 1.4 mg/kg | 0.2 mg/kg | 1100 mg/kg | 266 mg/kg | general absence of side-effects |  | 
2 | Nc1ccc(Cc2ccccc2F)c(N)n1 [D 17746, 2,6-diamino-3-(2-fluoro)benzylpyridine] |  |  |  | 276 mg/kg |  |  | 
3 | Nc1ccc(Cc2c(F)cccc2Cl)c(N)n1 [D 17748, 2,6-diamino-3-(2-fluoro-6-chloro)benzylpyridine] |  |  |  | 285 mg/kg |  | 34% | 57%
4 | CCOC(=O)Nc1ccc(NCc2ccc(F)cc2)nc1N [Flupirtin, reference compound] | 44.5 mg/kg | 38.8 mg/kg | 1660 mg/kg | 633 mg/kg |  |  | 

Source: patent US4851420A, “2,6-diamino-3-halobenzylpyridines and processes for their manufacture as well as their use in pharmaceuticals” (ASTA Pharma Aktiengesellschaft, priority 1986, dated 1989)
